Here are results for seven compounds from US20250320184A1 (SIRONAX LTD., priority 2022, published 2025).

The first experiment concerns the target T1, SARM1 (50-724) (Homo sapiens, UniProt Q6SZW1).
T1 sequence (Q6SZW1 50-724): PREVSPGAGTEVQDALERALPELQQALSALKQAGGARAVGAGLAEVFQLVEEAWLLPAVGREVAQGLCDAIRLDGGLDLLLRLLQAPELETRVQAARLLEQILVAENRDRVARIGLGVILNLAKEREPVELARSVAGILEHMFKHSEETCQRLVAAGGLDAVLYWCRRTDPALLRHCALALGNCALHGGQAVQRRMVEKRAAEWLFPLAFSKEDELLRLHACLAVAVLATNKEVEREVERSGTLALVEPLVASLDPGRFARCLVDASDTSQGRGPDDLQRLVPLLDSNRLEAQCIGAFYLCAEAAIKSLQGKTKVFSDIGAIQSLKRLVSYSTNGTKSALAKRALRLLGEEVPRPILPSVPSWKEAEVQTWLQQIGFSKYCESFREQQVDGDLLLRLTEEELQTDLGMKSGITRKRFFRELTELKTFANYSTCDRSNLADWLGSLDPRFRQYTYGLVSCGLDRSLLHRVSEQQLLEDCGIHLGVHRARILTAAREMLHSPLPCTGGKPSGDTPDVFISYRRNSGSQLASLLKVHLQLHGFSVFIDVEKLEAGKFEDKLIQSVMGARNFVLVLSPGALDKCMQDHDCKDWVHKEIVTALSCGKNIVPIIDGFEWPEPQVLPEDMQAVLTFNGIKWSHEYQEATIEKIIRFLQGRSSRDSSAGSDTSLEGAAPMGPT
Put plainly: biochemical.
Settings: not given
Turning to `O=c1[nH]ccc2ccc(OC(CO)c3cccc(Cl)c3Cl)cc12` (stereo not shown) [Example 228, 7-(1-(2,3-dichlorophenyl)-2-hydroxyethoxy)isoquinolin-1(2H)-one], the IC50 (in general, the concentration that gives 50% inhibition) was in the range of 0.1 to 0.5 µM. In turn, `CC1(C)C(=O)N(CC(=O)N2CCCCC2)c2cc(NS(=O)(=O)c3cccc(Cl)c3Cl)ccc21` [Example 286, 2,3-dichloro-N-(3,3-dimethyl-2-oxo-1-(2-oxo-2-(piperidin-1-yl)ethyl)indolin-6-yl)benzenesulfonamide] yielded an IC50 of less than 0.1 µM. The compound `CC1(C)C(=O)N(CC(=O)NCCO)c2cc(NS(=O)(=O)c3cccc(Cl)c3Cl)ccc21` [Example 287, 2-(6-((2,3-dichlorophenyl)sulfonamido)-3,3-dimethyl-2-oxoindolin-1-yl)-N-(2-hydroxyethyl)acetamide] had an IC50 of less than 0.1 µM. For `CC1(C)C(=O)N(CC(=O)N2CCOCC2)c2cc(NS(=O)(=O)c3cccc(Cl)c3Cl)ccc21` [Example 291, 2,3-dichloro-N-(3,3-dimethyl-1-(2-morpholino-2-oxoethyl)-2-oxoindolin-6-yl)benzenesulfonamide], the half-maximal inhibitory concentration (IC50) is less than 0.1 µM. Same read-out and setting: with `Cc1c2ccc(NC(C)(C)c3nc(Cl)c(Cl)s3)cc2nn1CC(N)=O` [Example 360, 2-(6-((2-(4,5-dichlorothiazol-2-yl)propan-2-yl)amino)-3-methyl-2H-indazol-2-yl)acetamide] the figure was less than 0.1 µM.

The next experiment deals with T1, SARM1 (50-724). The experiment is described as follows: SARM1 (50-724) enzymatic assay. The settings on record: SARM1 inhibitory activity; purified SARM1 (50-724) 2 nM, 200 μM NMN activator, 100 μM NAD+ substrate, LC-MS/MS.
Procedure: An enzymatic assay was performed in a 384-well plate using Dulbecco's phosphate-buffered saline (PBS) as the reaction buffer. […] The reaction was initiated by adding a mixture of 200 μM nicotinamide mononucleotide (NMN) as activator and 100 μM NAD^+ as substrate. After 1 h of incubation at room temperature, the reaction was terminated with 10 times volume of 70% acetonitrile, then centrifuged at 3800 rpm for 10 min.
`CC(Nc1ccc2cc[nH]c(=O)c2c1)c1nccc(Cl)c1Cl` (racemic) [Example 194, 7-((1-(3,4-dichloropyridin-2-yl)ethyl)amino)isoquinolin-1(2H)-one]: the half-inhibitory concentration (IC50) is less than 0.1 µM.

For the compound `CC(Nc1ccc2c(c1)C(=O)NCC2)c1cccc(Cl)c1Cl` (single isomer, unassigned) [Example 112], the IC50 is less than 0.1 µM.
